The values below come from EP2712863B1, “Novel inhibitors of bacterial biofilms and related methods” (Sequoia Sciences, Inc., priority 2012, dated 2014).

Converted amounts (≈) assume the structure as drawn. Where two headings read alike, the source gives them in different places. Some results are limits rather than exact numbers.

What all share (format): cell-based
One experiment relates to P. aeruginosa. Put plainly: Biofilm growth assay (spreading biofilm on semi-solid agar). Further details: P. aeruginosa (n=10): unit not given here. To be noted: for IC85: Pseudomonas aeruginosa, read-out: P. aeruginosa.
The next experiment relates to E. coli. The description is as above. The note with it: for IC85: Escherichia coli, read-out: E. coli. In outline:
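Spreading (swarming) biofilm on semi-solid agar: E. coli on LB with 0.6% agar and 0.5% glucose; P. aeruginosa on M8 agar with 0.2% glucose, 100 µM CaCl2, 1 mM MgSO4, 0.5% Casamino acids. Compound in medium; 5 µL overnight culture spotted centrally, 37°C overnight. Value: concentration (µg/ml) giving ≥85% reduction in spread area versus negative control.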

Another experiment relates to Burkholderia cepacia. Description: Biofilm growth assay, multiple isolates. The note with it: Table 6; inhibitory concentration in the biofilm growth assay; n = number of isolates tested. As for the experimental part:
(§1) The biofilm growth assay was carried out to measure swarming or biofilm spreading on semi-solid agar media in round plates (for example, 100 × 15 mm), also referred to as Petri dishes. For E. coli, the plates contained LB medium with 0.6% agar and 0.5% glucose. P. aeruginosa plates were made with M8 agar supplemented with 0.2% glucose, 100 µM CaCl2, 1 mM MgSO4, and 0.5% Casamino acids. The agar plates of this assay consisted of 0.4% to 0.7% agar (Bacto or Noble agar), although other media may also be used as described in the literature and known to those skilled in the art. Test compounds at the desired concentration were added to the cooled, autoclaved media. Portions of the media were then poured into the plates (20 mL/plate), and the plates allowed to dry at room temperature for approximately 3 to 4 hours. Alternatively, however, plates may be dried in a laminar flow hood for approximately fifteen to twenty minutes. Overnight cultures were grown in a 37°C shaker in LB (E. coli) or TSB (P. aeruginosa). Plates were inoculated by placing 5 µL of the appropriate overnight culture in the centers of the plates. The plates then were incubated overnight at 37°C. The area of the zone of spreading bacteria was then measured and replicates are averaged. Percent inhibition was calculated as 100 × (area without compound - area with compound)/(area without compound). An active compound was considered that which reduces the area of the spreading biofilm compared to negative controls by greater than or equal to 85%. The values shown in Table 1 are the concentrations of compounds (µg/ml) tested in the biofilm growth assay that reduce the area of the spreading biofilm compared to negative controls by greater than or equal to 85% unless noted differently in Table 1. A > ("greater than" symbol) as used in Table 1 is well understood to those skilled in the art as an indication that the listed concentration was not effective at this concentration.
(§2) Table 6, below, lists the inhibitory concentrations of select compounds and antibiotics in the biofilm growth assay against various gram-negative bacterial biofilms. "N" means the number of isolates of bacteria tested. The biofilm growth assay procedure detailed in Example I, above, was followed. Burkholderia cepacia used media consisting of M9 salts, 100 µM CaCl2, 1 mM MgS04, and 0.7% citrate in 0.4% Noble agar. Salmonella spp. used media consisting of Nutrient Broth with 0.5% glucose in 0.5% Noble agar.

For a further experiment, the system named is Salmonella spp. Put plainly: Biofilm growth assay, multiple isolates. To be noted: Table 6; inhibitory concentration in the biofilm growth assay; n = number of isolates tested. As for the experimental part: as §1, §2
Where [1] appears, read: Table 4, concentration that reduces the area of the spreading biofilm by >= 85%.
Where [2] appears, read: Table 2, concentration that reduces the area of the spreading biofilm by >= 85%.
The mark [3] stands for this setting: Table 3, concentration that reduces the area of the spreading biofilm by >= 85%.
Where [4] appears, read: Table 1, concentration that reduces the area of the spreading biofilm vs negative controls by >= 85%, > means not effective at this concentration.

Regarding `CN(C)CCc1c([C@]23CCC(C)(C)CC2C2=CCC4[C@@]5(C)Cc6c(n[nH]c6N)C(C)(C)C5CC[C@@]4(C)[C@]2(C)CC3)n[nH]c1O` (stereo partly drawn) [Compound 85, 3-((4aS,6aS,6bR,13aR)-12-Amino-2,2,6a,6b,9,9,13a-heptamethyl-2,3,4,4a,5,6,6a,6b,7,8,8a,9,11,13,13a,13b,14,15b-octadecahydro-1H-chryseno[1,2-f]indazol-4a-yl)-4-(2-(dimethylamino)ethyl)-1H-pyrazol-5-ol], the IC85 in the experiment with P. aeruginosa (setting [1]) was 0.5 µg/mL (≈ 0.829 µM); with E. coli (setting [1]) it was 1 µg/mL (≈ 1.66 µM).
Turning to `CC1(C)CC[C@]2(C(=O)O)CC[C@]3(C)C(=C(c4ccc5c(c4)CCN5)CC4[C@@]5(C)Cc6c(n[nH]c6N)C(C)(C)C5CC[C@]43C)C2C1` (stereo partly drawn) [Compound 11, (4aS,6aS,6bR,13aR)-12-Amino-15-(indolin-5-yl)-2,2,6a,6b,9,9,13a-heptamethyl-2,3,4,4a,5,6,6a,6b,7,8,8a,9,11,13,13a,13b,14,15b-octadecahydro-1H-chryseno[1,2-f]indazole-4a-carboxylic acid], the IC85 in the experiment with P. aeruginosa (setting [2]) and in the experiment on E. coli (setting [2]) was 0.5 µg/mL (≈ 0.818 µM) each time.
With `CC1(C)CC[C@]2(C(=O)O)CC[C@]3(C)C(=C(c4ccc(N5CCC(N)CC5)nc4)CC4[C@@]5(C)Cc6c(n[nH]c6N)C(C)(C)C5CC[C@]43C)C2C1` (stereo partly drawn) [Compound 57, (4aS,6aS,6bR,13aR)-12-Amino-15-(6-(4-aminopiperidin-1-yl)pyridin-3-yl)-2,2,6a,6b,9,9,13a-heptamethyl-2,3,4,4a,5,6,6a,6b,7,8,8a,9,11,13,13a,13b,14,15b-octadecahydro-1H-chryseno[1,2-f]indazole-4a-carboxylic acid], the IC85 with P. aeruginosa (setting [3]) was more than 2 µg/mL; with E. coli (setting [3]), 1 µg/mL (≈ 1.49 µM).
On to `C/C=C/C1=C2[C@@H]3CC(C)(C)CC[C@]3(C(=O)O)CC[C@@]2(C)[C@]2(C)CC[C@H]3C(C)(C)c4n[nH]c(N)c4C[C@]3(C)C2C1` (stereo partly drawn) [Compound 5, (4aS,6aS,6bR,8aR,13aR,15bS)-12-Amino-2,2,6a,6b,9,9,13a-heptamethyl-15-((E)-prop-1-enyl)-2,3,4,4a,5,6,6a,6b,7,8,8a,9,11,13,13a,13b,14,15b-octadecahydro-1H-chryseno[1,2-f]indazole-4a-carboxylic acid], for which the IC85 in the experiment on P. aeruginosa (setting [2]) was 0.5 µg/mL (≈ 0.937 µM); with E. coli (setting [2]), 1 µg/mL (≈ 1.87 µM).
With `CC1(C)CC[C@]2(C(=O)Nc3cc(S)n[nH]3)CC[C@]3(C)C(=CCC4[C@@]5(C)Cc6c(n[nH]c6N)C(C)(C)C5CC[C@]43C)C2C1` (stereo partly drawn) [Compound 79, (4aS,6aS,6bR,13aR)-12-Amino-N-(3-mercapto-1H-pyrazol-5-yl)-2,2,6a,6b,9,9,13a-heptamethyl-2,3,4,4a,5,6,6a,6b,7,8,8a,9,11,13,13a,13b,14,15b-octadecahydro-1H-chryseno[1,2-f]indazole-4a-carboxamide], the values for the IC85 in the experiment on P. aeruginosa (setting [1]) and with E. coli (setting [1]) were 0.25 µg/mL (≈ 0.423 µM) and 0.5 µg/mL (≈ 0.846 µM), respectively.
For `Cc1ccc(C2=C3C4CC(C)(C)CC[C@]4(C(=O)O)CC[C@@]3(C)[C@]3(C)CCC4C(C)(C)c5n[nH]c(N)c5C[C@]4(C)C3C2)cc1N` (stereo partly drawn) [Compound 20, (4aS,6aS,6bR,13aR)-12-Amino-15-(3-amino-4-methylphenyl)-2,2,6a,6b,9,9,13a-heptamethyl-2,3,4,4a,5,6,6a,6b,7,8,8a,9,11,13,13a,13b,14,15b-octadecahydro-1H-chryseno[1,2-f]indazole-4a-carboxylic acid], the IC85 in the experiment on P. aeruginosa (setting [3]) stood at 0.5 µg/mL (≈ 0.835 µM); with E. coli (setting [3]) it was 2 µg/mL (≈ 3.34 µM).
As for `CC1(C)CC[C@]2(C(=O)Nc3nnc(S(N)(=O)=O)s3)CC[C@]3(C)C(=CCC4[C@@]5(C)Cc6c(n[nH]c6N)C(C)(C)C5CC[C@]43C)C2C1` (stereo partly shown) [Compound 80], the “P. aeruginosa” value in the experiment with P. aeruginosa (setting [1]) was determined as 1 µg/mL. For the same molecule, in the experiment with E. coli (setting [1]), the “E. coli” value is 1 µg/mL.
As for `CC[C@H]1OC(=O)[C@H](C)[C@@H](O[C@H]2C[C@@](C)(OC)[C@@H](O)[C@H](C)O2)[C@H](C)[C@@H](O[C@@H]2O[C@H](C)C[C@H](N(C)C)[C@H]2O)[C@](C)(O)C[C@@H](C)CN(C)[C@H](C)[C@@H](O)[C@]1(C)O` [Azithromycin, azithromycin], the “P. aeruginosa (n=10)” value in the experiment on P. aeruginosa (Table 6, inhibitory concentration in the biofilm growth assay, n = number of isolates tested) is reported as more than 16. The inhibitory concentration in the experiment on Burkholderia cepacia is more than 16. Also, the “inhibitory concentration in biofilm growth assay” value in the experiment with Salmonella spp. is given as more than 16.
Consider `CN1CCN(c2ccc(C3=C4C5CC(C)(C)CC[C@]5(C(=O)O)CC[C@@]4(C)[C@]4(C)CCC5C(C)(C)c6n[nH]c(N)c6C[C@]5(C)C4C3)cn2)CC1` (stereo partly drawn) [Compound 56, (4aS,6aS,6bR,13aR)-12-Amino-2,2,6a,6b,9,9,13a-heptamethyl-15-(6-(4-methylpiperazin-1-yl)pyridin-3-yl)-2,3,4,4a,5,6,6a,6b,7,8,8a,9,11,13,13a,13b,14,15b-octadecahydro-1H-chryseno[1,2-f]indazole-4a-carboxylic acid], for which the IC85 with P. aeruginosa (setting [3]) came to 1 µg/mL (≈ 1.49 µM); in the experiment on E. coli (setting [3]) it was 2 µg/mL (≈ 2.99 µM).
`Cn1cc(C2=C3[C@@H]4CC(C)(C)CC[C@]4(C(=O)O)CC[C@@]3(C)[C@]3(C)CC[C@H]4C(C)(C)c5n[nH]c(N)c5C[C@]4(C)C3C2)cn1` (stereo partly drawn) [Compound 28, (4aS,6aS,6bR,8aR,13aR,15bS)-12-Amino-2,2,6a,6b,9,9,13a-heptamethyl-15-(1-methyl-1H-pyrazol-4-yl)-2,3,4,4a,5,6,6a,6b,7,8,8a,9,11,13,13a,13b,14,15b-octadecahydro-1H-chryseno[1,2-f]indazole-4a-carboxylic acid]: the IC85 was found to be 1 µg/mL (≈ 1.74 µM) with P. aeruginosa (setting [3]) and 2 µg/mL (≈ 3.49 µM) in the experiment on E. coli (setting [3]).
On to `CC1(C)CC[C@]2(C(=O)Sc3nnc(N)[nH]3)CC[C@]3(C)C(=CCC4[C@@]5(C)Cc6c(n[nH]c6N)C(C)(C)C5CC[C@]43C)C2C1` (stereo partly drawn) [Compound 70, (4aS,6aS,6bR,13aR)-S-5-Amino-4H-1,2,4-triazol-3-yl 12-amino-2,2,6a,6b,9,9,13a-heptamethyl-2,3,4,4a,5,6,6a,6b,7,8,8a,9,11,13,13a,13b,14,15b-octadecahydro-1H-chryseno[1,2-f]indazole-4a-carbothioate], for which the IC85 was determined as 0.5 µg/mL (≈ 0.845 µM) in the experiment with P. aeruginosa (setting [1]) and 2 µg/mL (≈ 3.38 µM) with E. coli (setting [1]).
With `CC1(C)CC[C@]2(C(=O)O)CC[C@]3(C)C(=C(c4cccc5cnccc45)CC4[C@@]5(C)Cc6c(n[nH]c6N)C(C)(C)C5CC[C@]43C)C2C1` (stereo partly drawn) [Compound 46, (4aS,6aS,6bR,13aR)-12-Amino-15-(isoquinolin-5-yl)-2,2,6a,6b,9,9,13a-heptamethyl-2,3,4,4a,5,6,6a,6b,7,8,8a,9,11,13,13a,13b,14,15b-octadecahydro-1H-chryseno[1,2-f]indazole-4a-carboxylic acid], the IC85 with P. aeruginosa (setting [3]) amounted to 0.5 µg/mL (≈ 0.805 µM); in the experiment on E. coli (setting [3]), 1 µg/mL (≈ 1.61 µM).
Consider `CC1(C)CC[C@]2(C(=O)O)CC[C@]3(C)C(=C(c4ccsc4CN4CCOCC4)CC4[C@@]5(C)Cc6c(n[nH]c6N)C(C)(C)C5CC[C@]43C)C2C1` (stereo partly drawn) [Compound 34, (4aS,6aS,6bR,13aR)-12-Amino-2,2,6a,6b,9,9,13a-heptamethyl-15-(2-(morpholinomethyl)thiophen-3-yl)-2,3,4,4a,5,6,6a,6b,7,8,8a,9,11,13,13a,13b,14,15b-octadecahydro-1H-chryseno[1,2-f]indazole-4a-carboxylic acid], for which the IC85 in the experiment with P. aeruginosa (setting [3]) and in the experiment with E. coli (setting [3]) was 1 µg/mL (≈ 1.48 µM) in each case.
In the case of `CNc1ccc(C2=C3[C@@H]4CC(C)(C)CC[C@]4(C(=O)O)CC[C@@]3(C)[C@]3(C)CC[C@H]4C(C)(C)c5n[nH]c(N)c5C[C@]4(C)C3C2)cn1` (stereo partly drawn) [Compound 43, (4aS,6aS,6bR,8aR,13aR,15bS)-12-Amino-2,2,6a,6b,9,9,13a-heptamethyl-15-(6-(methylamino)pyridin-3-yl)-2,3,4,4a,5,6,6a,6b,7,8,8a,9,11,13,13a,13b,14,15b-octadecahydro-1H-chryseno[1,2-f]indazole-4a-carboxylic acid], the IC85 with P. aeruginosa (setting [3]) and in the experiment with E. coli (setting [3]) was 1 µg/mL (≈ 1.67 µM) in each case.
Turning to `CC1(C)CC[C@]2(C(=O)O)CC[C@]3(C)C(=CCC4[C@@]5(C)Cc6cc[nH]c6C(C)(C)C5CC[C@]43C)C2C1` (stereo partly shown) [C], the IC85 in the experiment on P. aeruginosa (setting [4]) and in the experiment on E. coli (setting [4]) was 0.5 µg/mL (≈ 1.05 µM) throughout.
